Where two headings read alike, the source gives them in different places.
Tests used:
S-180 sc. sarcoma [1] = test: Tumor inhibiting effect on solid tumors: S-180 sc. sarcoma; type: in vivo, mouse
Experimental: (§1) Our tests were performed on various transplantable mouse and rat tumors. The following tumor strains were applied:
Mouse: SC-180 sc. sarcoma (solid)
(§2) The tests were always performed on animals of both sexes. At the beginning of the tests the average body weight of mice was 20 to 22 g, whereas that of rats 150 to 180 g. The animals were kept in plastic cages and fed with a standard laboratory animal feed (LATI, Godollo, Hungary). The animals received water ad libitum.
(§3) Solid tumors were transplanted by a subcutaneous implantation of tumor chips. Ascites type tumors were transplanted with 10^7 cells received from the ascites, whereas leukaemia type tumors were transplanted with spleen suspension. The treatment of the animals was started 24 hours after transplantation, with the only exception of Harding-Passey melanoma, when treatment was started on the 4th day after transplantation.
(§4) *Performed on groups of 8 animals

Yoshida sc. sarcoma = test: Comparison of the ED50 values on Yoshida sc. sarcoma of rats (transplanted solid tumor); type: in vivo, rat; details: for ED50: Rattus norvegicus, Yoshida sc. sarcoma of rats; for Relative activity: calculated by comparing the ED50 values
Experimental: as §1
Rat: Yoshida sc. sarcoma
as §2, §3

[2] = test system: peripheral blood count (granulocytes, lymphocytes); test: Effect on peripheral blood count of rats (haematopoiesis); details: reference substances; in words
CFLP and BDF1 mice [3] = details: same animals, Nemeth et al. 1972, cited from earlier work
Harding-Passey melanoma = test: Tumor inhibiting effect on solid tumors: Harding-Passey melanoma; type: in vivo, mouse; details: treatment from 4th day after transplantation
Experimental: as §1
Harding-Passey melanoma
as §2, §3, §4

NK/Ly lymphoma [4] = details: 125 mg/kg, 6 × i.p.; cited from earlier work
S-180 sc. sarcoma [5] = details: 200 mg/kg, 8 × i.p.; cited from earlier work
[6] = test system: Walker sc. carcino-sarcoma; details: 100 mg/kg, 6 × i.p.; cited from earlier work
[7] = test system: transplantable mouse and rat tumors; test: Cytostatic effect / growth inhibition on transplantable mouse and rat tumors (overall statements); type: in vivo; details: in words
Experimental: as §1, §2, §3

[8] = test system: Walker sc. carcino-sarcoma; test: Tumor inhibiting effect on solid tumors: Walker sc. sarcoma; type: in vivo, rat; details: 10 mg/kg
Experimental: as §1
Walker sc. carcino-sarcoma
as §2, §3, §4

CFLP and BDF1 mice [9] = test: Acute toxicity (LD50) on CFLP and BDF1 mice; details: in words
Experimental: (§5) The tests were performed on groups consisting of 10 mice (5 males and 5 females), and the animals were kept under observation for 3 weeks.

[10] = Acute toxicity (LD50) on CFLP and BDF1 mice; details: mouse, in vivo
Experimental: as §5

NK/Ly lymphoma [11] = test: Tumor inhibiting effect on ascites type tumors: NK/Ly lymphoma; type: in vivo, mouse; details: 30 mg/kg, 4 × i.p.
Experimental: as §1, §2, §3

Ehrlich asc. carcinoma = test: Tumor inhibiting effect on ascites type tumors: Ehrlich ascites carcinoma; type: in vivo, mouse
Experimental: as §1, §2, §3
Healing=tumor-free survival of 90 days after transplantation

With “1,6-dimesyl-1,6-dideoxy-D-mannitol [reference compound]” the Inhibition (S-180 sc. sarcoma [1]; 300 mg/kg, 6 × i.p.) was 31 and the “Inhibition (toxicity reported in this column)” value (S-180 sc. sarcoma [1]; 500 mg/kg, 6 × i.p.) was “toxic”.

CS(=O)(=O)OC[C@@H](O)[C@@H](O)[C@H](O)[C@H](O)COS(C)(=O)=O [1,6-Dimesyl-D-mannitol (Mannogranol), 1,6-dimesyl-D-mannitol] showed an ED50 (Yoshida sc. sarcoma; ip) of 500 mg/kg and an ED50 (Yoshida sc. sarcoma; po) of 600 mg/kg.

For O[C@@H]([C@H](O)[C@H](O)CBr)[C@H](O)CBr [1,6-dibromo-1,6-dideoxy-D-mannitol], the “effect on haematopoiesis (formation of myeloid leukocytes)” value [2] was “rather strong and selective action on the formation of myeloid leukocytes”, the ED50 (Yoshida sc. sarcoma; ip) was 490 mg/kg and the ED50 (Yoshida sc. sarcoma; po) was 170 mg/kg. The Relative activity (Yoshida sc. sarcoma; i.p.) was 0.04 and the Relative activity (Yoshida sc. sarcoma; p.o.) was 0.41.

In the case of O[C@H]([C@H](O)[C@@H](O)CBr)[C@H](O)CBr [1,6-dibromo-1,6-dideoxy-dulcitol], the “effect on haematopoiesis (formation of myeloid leukocytes)” value [2] is given as “rather strong and selective action on the formation of myeloid leukocytes”, the LD50 value (CFLP and BDF1 mice [3]; i.p.) is given as 900 mg/kg and the LD50 value (CFLP and BDF1 mice [3]; p.o.) is given as 1500 mg/kg. For the same compound, the Inhibition (Harding-Passey melanoma; 200 mg/kg, 13 × i.p.) was 67, the “Prol. of life span” value (NK/Ly lymphoma [4]) was 90% and the Inhibition (S-180 sc. sarcoma [5]) was 57. For the same compound, the Inhibition [6] was 95, the ED50 (Yoshida sc. sarcoma; ip) was 50 mg/kg and the Relative activity (Yoshida sc. sarcoma; i.p.) was 0.4.

In the case of CO[C@@H]([C@H](OC)[C@H](O)COS(C)(=O)=O)[C@H](O)COS(C)(=O)=O [compound of formula (I), 1,6-dimesyl-3,4-dimethyl-D-mannitol], the cytostatic effect [7] is reported as “strong cytostatic effect”, the “cytostatic effect compared with Mannogranol, Myelobromol and Elobromol” value [7] is reported as “even more effective” and the cytostatic effect ([7]; listed as 1,6-dimesyl-3,4-dimethyl-D-mannitol) is reported as “extremely potent cytostatic agent”. For the same compound, the “inhibition of the growth of solid tumors” value ([7]; solid tumors, even in very low dosages compared to the toxic one) was “significantly inhibits the growth of solid tumors”, the Inhibition ([8]; 5 × i.p.) was 90 and the Inhibition ([8]; 5 × p.o.) was 97. The Inhibition (Harding-Passey melanoma; 30 mg/kg, 10 × p.o.) was 31, the Inhibition (Harding-Passey melanoma; 100 mg/kg, 10 × p.o.) was 52 and the toxicity (CFLP and BDF1 mice [9]) was “low toxicity”. The oral resorption (CFLP and BDF1 mice [9]; inferred from i.p. vs oral LD50) was “excellent oral resorption”, the LD50 at 504 h ([10]; ip) was 1000 mg/kg and the LD50 at 504 h ([10]; po) was 1100 mg/kg. For the same compound, the “Prol. of life span” value (NK/Ly lymphoma [11]) was 101%, the Inhibition (S-180 sc. sarcoma [1]; 100 mg/kg, 4 × p.o.) was 50 and the Inhibition (S-180 sc. sarcoma [1]; 200 mg/kg, 6 × p.o.) was 70. The “Prol. of life span” value (Ehrlich asc. carcinoma; 100 mg/kg, 4 × i.p.) was 99.6%, the “effect on Ehrlich ascites tumor” value (Ehrlich asc. carcinoma; in words) was “healing effect” and the ED50 (Yoshida sc. sarcoma; ip) was 20 mg/kg. The ED50 (Yoshida sc. sarcoma; po) was 70 mg/kg.

Reference: patent US4235803A (priority 1978, dated 1980)
